Experimental findings from US12139520B2 (priority 2020, dated 2024) are described below.

Structures are written as SMILES. Bridge positions count the residues as written; N and C are the ends. Square brackets hold non-standard residues; d marks the D form. Peptide text beside a SMILES is read from it. Hyp = O=C(O)[C@@H]1C[C@@H](O)CN1; Cit = NC(=O)NCCC[C@H](N)C(=O)O

The nature of series [1]: Physical stability of peptide analogues (Thioflavin T fibrillation). The series is classed as physicochemical. The following applies: maximum ThT signal normalized between hAMY maximum and buffer background; 40° C., shaking, four days; pH 7 per table title. The essentials: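 ThT fluorescence (450 nm excitation, 480 nm emission; 4 μM dye) was read every 10 min over four days at 40° C under 700 rpm shaking stress, after 1 h in pH 4 acetate or pH 7 phosphate (50 mM). Peak smoothed signal expressed as percent, scaled between buffer background and hAMY maximum.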

Series [2] concerns the target hAM1 receptor (Homo sapiens, UniProt O60895+Q16602). Put plainly: cAMP assay for in vitro receptor activation, hAM1-R. The following applies: cAMP assay, hAM1 receptor; read-out: hAM1R EC50. The series is classed as cell-based. Put shortly:
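Receptor activation, read as cAMP, was assessed in thawed cells of a monoclonal hAM1-overexpressing stable line, plated at 8000 cells/well in DPBS supplemented with 0.05% casein and 0.5 mM IBMX.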
On the technique in general: Cyclic AMP is a second messenger, typically raised through Gs and lowered through Gi signalling.

hAM1 receptor, sequence (Q16602 23-461): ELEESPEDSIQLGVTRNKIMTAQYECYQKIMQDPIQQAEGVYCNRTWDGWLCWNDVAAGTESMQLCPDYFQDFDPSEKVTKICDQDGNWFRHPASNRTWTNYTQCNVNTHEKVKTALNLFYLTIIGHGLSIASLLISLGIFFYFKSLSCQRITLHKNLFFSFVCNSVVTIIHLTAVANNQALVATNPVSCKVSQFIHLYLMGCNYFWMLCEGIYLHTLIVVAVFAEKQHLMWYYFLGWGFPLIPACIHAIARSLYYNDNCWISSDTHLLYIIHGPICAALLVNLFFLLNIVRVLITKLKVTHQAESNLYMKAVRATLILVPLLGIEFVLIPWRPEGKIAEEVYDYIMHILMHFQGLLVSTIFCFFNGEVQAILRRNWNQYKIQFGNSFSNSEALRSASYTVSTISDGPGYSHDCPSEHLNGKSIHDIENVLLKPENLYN
hAM1 receptor, sequence (O60895 43-175 partner): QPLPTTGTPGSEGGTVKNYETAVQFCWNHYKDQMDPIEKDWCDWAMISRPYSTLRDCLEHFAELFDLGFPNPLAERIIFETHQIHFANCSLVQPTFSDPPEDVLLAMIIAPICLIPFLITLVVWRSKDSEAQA

The term EC50 denotes the concentration giving half of the maximal effect. Consider `CC[C@H](C)[C@H](NC(=O)[C@H](CCC(N)=O)NC(=O)[C@H](Cc1c[nH]cn1)NC(=O)[C@H](C)NC(=O)[C@H](CC(C)C)NC(=O)[C@H](CCCNC(=N)N)NC(=O)[C@H](CCC(N)=O)NC(=O)[C@@H](NC(=O)[C@@H](NC(=O)[C@@H]1CSSC[C@H](NC(=O)CN)C(=O)N[C@@H](CCCNC(=N)N)C(=O)N[C@@H]([C@@H](C)O)C(=O)NCC(=O)N[C@@H]([C@@H](C)O)C(=O)N1)[C@@H](C)O)C(C)C)C(=O)N[C@@H](Cc1c[nH]cn1)C(=O)N[C@@H](CCC(N)=O)C(=O)N[C@@H](Cc1ccccc1)C(=O)N[C@H](C(=O)N[C@@H](CC(=O)O)C(=O)N[C@@H](CCCCN)C(=O)N[C@@H](CC(=O)O)C(=O)N[C@@H](CCCCN)C(=O)N[C@@H](CC(=O)O)C(=O)N[C@@H](CC(N)=O)C(=O)N[C@H](C(=O)N[C@@H](C)C(=O)N1CCC[C@H]1C(=O)N[C@@H](CCCNC(=N)N)C(=O)N[C@@H](CO)C(=O)N[C@@H](CCCCN)C(=O)N[C@H](C(=O)N[C@@H](CO)C(=O)N1CCC[C@H]1C(=O)N[C@@H](CCC(N)=O)C(=O)N[C@H](C(=O)N1C[C@H](O)C[C@H]1C(N)=O)[C@@H](C)O)[C@@H](C)CC)C(C)C)[C@@H](C)O` [compound 228] (H-GCRTGTCTVQRLAHQIHQFTDKDKDNVAPRSKISPQT[Hyp]-NH2; disulfide 2-7; N-terminus assumed), for which the “Max ThT signal (%)” value in series [1] is 19.600%. Also, the EC50 in series [2] is over 5 µM.

With `CC[C@H](C)[C@H](NC(=O)[C@H](CCC(N)=O)NC(=O)[C@H](Cc1c[nH]cn1)NC(=O)[C@H](C)NC(=O)[C@H](CC(C)C)NC(=O)[C@H](CCCNC(=N)N)NC(=O)[C@H](CCC(N)=O)NC(=O)[C@@H](NC(=O)[C@@H](NC(=O)[C@@H]1CSSC[C@H](NC(=O)CN)C(=O)N[C@@H](CCCNC(=N)N)C(=O)N[C@@H]([C@@H](C)O)C(=O)NCC(=O)N[C@@H]([C@@H](C)O)C(=O)N1)[C@@H](C)O)C(C)C)C(=O)N[C@@H](Cc1ccc(O)cc1)C(=O)N[C@@H](CCC(N)=O)C(=O)N[C@@H](Cc1ccccc1)C(=O)N[C@H](C(=O)N[C@@H](CC(=O)O)C(=O)N[C@@H](CCCCN)C(=O)N[C@@H](Cc1ccccc1)C(=O)N[C@@H](CCCCN)C(=O)N[C@@H](CC(=O)O)C(=O)N[C@@H](CC(N)=O)C(=O)N[C@H](C(=O)N[C@@H](C)C(=O)N1CCC[C@H]1C(=O)N[C@@H](CCCNC(=N)N)C(=O)N[C@@H](CO)C(=O)N[C@@H](CCCCN)C(=O)N[C@H](C(=O)N[C@@H](CO)C(=O)N1CCC[C@H]1C(=O)N[C@@H](CCC(N)=O)C(=O)N[C@H](C(=O)N[C@@H](Cc1ccc(O)cc1)C(N)=O)[C@@H](C)O)[C@@H](C)CC)C(C)C)[C@@H](C)O` [compound 230] (H-GCRTGTCTVQRLAHQIYQFTDKFKDNVAPRSKISPQTY-NH2; disulfide 2-7; N-terminus assumed), in series [1], the “Max ThT signal (%)” value is recorded as 0.600%. In series [2], the EC50 was over 5 µM.

On to `CC[C@H](C)[C@H](NC(=O)[C@H](CCC(N)=O)NC(=O)[C@H](Cc1c[nH]cn1)NC(=O)[C@H](C)NC(=O)[C@H](CC(C)C)NC(=O)[C@H](CCCNC(=N)N)NC(=O)[C@H](CCC(N)=O)NC(=O)[C@@H](NC(=O)[C@@H](NC(=O)[C@@H]1CSSC[C@H](NC(=O)CN)C(=O)N[C@@H](CCCNC(=N)N)C(=O)N[C@@H]([C@@H](C)O)C(=O)NCC(=O)N[C@@H]([C@@H](C)O)C(=O)N1)[C@@H](C)O)C(C)C)C(=O)N[C@@H](Cc1ccc(O)cc1)C(=O)N[C@@H](CCC(N)=O)C(=O)N[C@@H](Cc1ccccc1)C(=O)N[C@H](C(=O)N[C@@H](CC(N)=O)C(=O)N[C@@H](CCCCN)C(=O)N[C@@H](CC(=O)O)C(=O)N[C@@H](CCCCN)C(=O)N[C@@H](CC(=O)O)C(=O)N[C@@H](CC(N)=O)C(=O)N[C@H](C(=O)N[C@@H](C)C(=O)N1CCC[C@H]1C(=O)N[C@@H](CCCNC(=N)N)C(=O)N[C@@H](CO)C(=O)N[C@@H](CCCCN)C(=O)N[C@H](C(=O)N[C@@H](CO)C(=O)N1CCC[C@H]1C(=O)N[C@@H](CCC(N)=O)C(=O)N[C@@H](CCC(N)=O)C(=O)N1C[C@H](O)C[C@H]1C(N)=O)[C@@H](C)CC)C(C)C)[C@@H](C)O` [compound 232] (H-GCRTGTCTVQRLAHQIYQFTNKDKDNVAPRSKISPQQ[Hyp]-NH2; disulfide 2-7; N-terminus assumed), for which the “Max ThT signal (%)” value in series [1] amounted to 1.200%. For the same molecule, the EC50 in series [2] is over 5 µM.

As for `CC[C@H](C)[C@H](NC(=O)[C@H](CCC(N)=O)NC(=O)[C@H](Cc1c[nH]cn1)NC(=O)[C@H](C)NC(=O)[C@H](CC(C)C)NC(=O)[C@H](CCCNC(=N)N)NC(=O)[C@H](CCC(N)=O)NC(=O)[C@@H](NC(=O)[C@@H](NC(=O)[C@@H]1CSSC[C@H](NC(=O)CN)C(=O)N[C@@H](CCCNC(=N)N)C(=O)N[C@@H](Cc2ccccc2)C(=O)NCC(=O)N[C@@H]([C@@H](C)O)C(=O)N1)[C@@H](C)O)C(C)C)C(=O)N[C@@H](Cc1ccc(O)cc1)C(=O)N[C@@H](CCC(N)=O)C(=O)N[C@@H](Cc1ccccc1)C(=O)N[C@H](C(=O)N[C@@H](CC(=O)O)C(=O)N[C@@H](CCCCN)C(=O)N[C@@H](CC(=O)O)C(=O)N[C@@H](CCCCN)C(=O)N[C@@H](CC(=O)O)C(=O)N[C@@H](CC(N)=O)C(=O)N[C@H](C(=O)N[C@@H](C)C(=O)N1CCC[C@H]1C(=O)N[C@@H](CO)C(=O)N[C@@H](CO)C(=O)N[C@@H](CCCCN)C(=O)N[C@H](C(=O)N[C@@H](CO)C(=O)N1CCC[C@H]1C(=O)N[C@@H](CCC(N)=O)C(=O)N[C@H](C(=O)N1C[C@H](O)C[C@H]1C(N)=O)[C@@H](C)O)[C@@H](C)CC)C(C)C)[C@@H](C)O` [compound 240] (H-GCRFGTCTVQRLAHQIYQFTDKDKDNVAPSSKISPQT[Hyp]-NH2; disulfide 2-7; N-terminus assumed), the “Max ThT signal (%)” value in series [1] is 3.700%. The 50% effective concentration (EC50) in series [2] is over 5 µM.

For the molecule `CC[C@H](C)[C@H](NC(=O)[C@H](CCC(N)=O)NC(=O)[C@H](Cc1c[nH]cn1)NC(=O)[C@H](C)NC(=O)[C@H](CC(C)C)NC(=O)[C@H](CCCNC(=N)N)NC(=O)[C@H](CCC(N)=O)NC(=O)[C@@H](NC(=O)[C@@H](NC(=O)[C@@H]1CSSC[C@H](NC(=O)CN)C(=O)N[C@@H](CCCNC(=N)N)C(=O)N[C@@H]([C@@H](C)O)C(=O)NCC(=O)N[C@@H]([C@@H](C)O)C(=O)N1)[C@@H](C)O)C(C)C)C(=O)N[C@@H](Cc1ccc(O)cc1)C(=O)N[C@@H](CCC(N)=O)C(=O)N[C@@H](Cc1ccccc1)C(=O)N[C@H](C(=O)N[C@@H](CC(N)=O)C(=O)N[C@@H](CCCCN)C(=O)N[C@@H](CC(=O)O)C(=O)N[C@@H](CCCCN)C(=O)N[C@@H](CC(=O)O)C(=O)N[C@@H](CC(N)=O)C(=O)N[C@H](C(=O)N[C@@H](C)C(=O)N1CCC[C@H]1C(=O)N[C@@H](CCCNC(=N)N)C(=O)N[C@@H](CO)C(=O)N[C@@H](CCCCN)C(=O)N[C@H](C(=O)N[C@@H](CO)C(=O)N1CCC[C@H]1C(=O)N[C@@H](CCC(N)=O)C(=O)N[C@H](C(=O)N[C@@H](CCCNC(=N)N)C(N)=O)[C@@H](C)O)[C@@H](C)CC)C(C)C)[C@@H](C)O` [compound 242] (H-GCRTGTCTVQRLAHQIYQFTNKDKDNVAPRSKISPQTR-NH2; disulfide 2-7; N-terminus assumed), in series [1], the “Max ThT signal (%)” value was 0.800%. Also, in series [2], the EC50 was over 5 µM.

In the case of `CC[C@H](C)[C@H](NC(=O)[C@H](CCCCN)NC(=O)[C@@H](NC(=O)[C@H](CCCNC(=N)N)NC(=O)[C@@H]1CCCN1C(=O)[C@H](C)NC(=O)[C@@H](NC(=O)[C@H](CC(N)=O)NC(=O)[C@H](CC(=O)O)NC(=O)[C@H](CCCCN)NC(=O)[C@H](CC(=O)O)NC(=O)[C@H](CCCCN)NC(=O)[C@H](CC(=O)O)NC(=O)[C@@H](NC(=O)[C@H](Cc1ccccc1)NC(=O)[C@H](CCC(N)=O)NC(=O)[C@H](Cc1ccc(O)cc1)NC(=O)[C@@H](NC(=O)[C@H](CCC(N)=O)NC(=O)[C@H](Cc1c[nH]cn1)NC(=O)[C@H](C)NC(=O)[C@H](CC(C)C)NC(=O)[C@H](CCCNC(N)=O)NC(=O)[C@H](CCC(N)=O)NC(=O)[C@@H](NC(=O)[C@@H](NC(=O)[C@@H]1CSSC[C@H](NC(=O)CN)C(=O)N[C@@H](CCCNC(=N)N)C(=O)N[C@@H]([C@@H](C)O)C(=O)NCC(=O)N[C@@H]([C@@H](C)O)C(=O)N1)[C@@H](C)O)C(C)C)[C@@H](C)CC)[C@@H](C)O)C(C)C)[C@@H](C)O)C(=O)NCC(=O)N1CCC[C@H]1C(=O)N[C@@H](CC(N)=O)C(=O)NCC(=O)N1C[C@H](O)C[C@H]1C(N)=O` [compound 277] (H-GCRTGTCTVQ[Cit]LAHQIYQFTDKDKDNVAPRTKIGPNG[Hyp]-NH2; disulfide 2-7; N-terminus assumed), the “Max ThT signal (%)” value in series [1] is recorded as 21.600%. Also, in series [2], the 50% effective concentration (EC50) is over 5 µM.

Regarding `CC[C@H](C)[C@H](NC(=O)[C@H](CCC(N)=O)NC(=O)[C@H](Cc1c[nH]cn1)NC(=O)[C@H](C)NC(=O)[C@H](CC(C)C)NC(=O)[C@H](CCCNC(N)=O)NC(=O)[C@H](CCC(N)=O)NC(=O)[C@@H](NC(=O)[C@@H](NC(=O)[C@@H]1CSSC[C@H](NC(=O)CN)C(=O)N[C@@H](CCCNC(=N)N)C(=O)N[C@@H](Cc2ccccc2)C(=O)NCC(=O)N[C@@H]([C@@H](C)O)C(=O)N1)[C@@H](C)O)C(C)C)C(=O)N[C@@H](Cc1ccc(O)cc1)C(=O)N[C@@H](CCC(N)=O)C(=O)N[C@@H](Cc1ccccc1)C(=O)N[C@H](C(=O)N[C@@H](CC(=O)O)C(=O)N[C@@H](CCCCN)C(=O)N[C@@H](CC(=O)O)C(=O)N[C@@H](CCCCN)C(=O)N[C@@H](CC(=O)O)C(=O)N[C@@H](CC(N)=O)C(=O)N[C@H](C(=O)N[C@@H](C)C(=O)N1CCC[C@H]1C(=O)N[C@@H](CCCNC(=N)N)C(=O)N[C@H](C(=O)N[C@@H](CCCCN)C(=O)N[C@H](C(=O)N[C@@H](CO)C(=O)N1CCC[C@H]1C(=O)N[C@@H](CCC(N)=O)C(=O)NCC(=O)N1C[C@H](O)C[C@H]1C(N)=O)C(C)C)[C@@H](C)O)C(C)C)[C@@H](C)O` [compound 287] (H-GCRFGTCTVQ[Cit]LAHQIYQFTDKDKDNVAPRTKVSPQG[Hyp]-NH2; disulfide 2-7; N-terminus assumed), the “Max ThT signal (%)” value in series [1] amounted to 10.650%. The EC50 in series [2] is over 5 µM.
